# Data reported in patent publication US20230203485A1, “METHODS FOR MODULATING MHC-I EXPRESSION AND IMMUNOTHERAPY USES THEREOF” (Dana-Farber Cancer Institute, Inc., priority 2020, published 2023).
# Experiments:
# Assay type in all cases: cell-based, human
# [1] = test system: class I pathway and IFN-γ pathway proteins (STAT1/p-STAT1) in MCC lines; assay: Whole proteome analysis (TMT LC-MS/MS) of MCC lines with and without IFNγ; details: MCC lines non-IFN-responsive by flow cytometry
# Experimental: FIG. 2D is a proteomics heatmap depicting the relative expression of key IFN-γ pathway components in 4 of the MCC lines, both at baseline and after IFN-γ treatment.
# FIG. 2E comprises graphs summarizing a targeted analysis of normalized STAT1 peptide counts (left) and STAT-Y701y phosphosite counts (right) between untreated and IFN-γ-treated cell lines.
# Protein expression of MCC cell lines was assessed as described previously (Mertins et al. (2018) Nature Protocols 13 (7): 1632-61. Briefly, cell pellets of MCC cell lines with and without IFNγ treatment were lysed in 8M Urea and digested to peptides using LysC and Trypsin (Promega). 400 μg peptides were labeled with TMT10 reagents (Thermo Fisher, 126-MCC290, 127N-MCC350_IFN, 127C MCC275_IFN, 128N MCC275, 128C MCC350, 129N_MCC301_IFN, 129C-MCC277, 130N-MCC290_IFNy, 130C MCC277 IFN, 131 MCC301) and then pooled for subsequent fractionation and analysis. Pooled peptides were separated into 24 fractions using offline high pH reversed phase fractionation. 1 μg per fraction was loaded onto an analytical column (20-30 cm, 1.9 μm C18 Reprosil beads (Dr. Maisch HPLC GmbH), packed in-house PicoFrit 75 μM inner diameter, 10 μM emitter (New Objective)). […] During data dependent acquisition, peptides were analyzed on a Fusion Lumos (Thermo Scientific). […]
# [2] = test system: surface HLA-I; assay: Interferon treatment of MCC lines, surface HLA-I by flow cytometry
# Experimental: (§1) Cells were dissociated with Versene and incubated with 5 μL Human TruStain FcX (Fc Receptor Blocking Solution; Biolegend #422302) per million cells in 100 μL at room temperature for 10 min. Fluorophore-conjugated antibodies or respective isotype controls were added and incubated for another 30 min at 4° C. Cells were then washed once with PBS and resuspended in PBS or 4% paraformaldehyde and analyzed on an LSR Fortessa cytometer. For HLA-I and HLA-II detection, the following antibodies were used: HLA-ABC (W6/32 clone) conjugated to PE (BioLegend #311406), APC (BioLegend #311410), or AF647 (Santa Cruz Biotechnology #sc32235 AF647), and HLA-DR-FITC (BioLegend #307604).
# [3] = test system: HLA-DR; assay: IFN-γ treatment, HLA-DR by flow cytometry; details: MCC-301 cell line
# Experimental: as §1
Substance,STAT1/p-STAT1 protein expression [1],fold increase in MFI of HLA-I after IFN-γ exposure ([2]; 8 lines) [fold],median fold increase in MFI of HLA-I after IFN-γ exposure ([2]; 8 lines) [fold],range of fold increase in MFI of HLA-I after IFN-γ exposure ([2]; 8 lines),"fold increase in MFI of HLA-I after IFN-γ exposure ([2]; three lines (MCC-336, -350, -358)) [fold]",HLA-DR expression [3]
"IFN-y: type II interferon, recombinant human, used to treat MCC cells",lack of IFN-induced STAT1/p-STAT1 protein expression,–,–,–,–,–
IFN-γ: interferon gamma used to stimulate MCC cell lines,–,≥ 2.5,5.7,2.5-12.4 fold,≤ 1.15,upregulated
